From patent US10392404B2, “Compounds and compositions as kinase inhibitors” (NOVARTIS AG, priority 2014, dated 2019)

Tests used:
C-RAF = molecular target: T1, C-RAF (Homo sapiens, UniProt P04049, Y340E/Y341E); assay: In vitro Raf activity determination (Alpha Screen, biotinylated kinase-dead MEK1 substrate), C-Raf; assay type: biochemical; conditions: c-Raf approximately 4 nM; ATP 1 μM; pre-incubation 60 minutes; reaction 1 hour at room temperature
T1 construct: His tag (implied by nickel chromatography) (cleaved yes); StrepII tag (cleaved yes); made in house; host or cells: Sf9 insect cells (baculovirus), CRAF and h14-3-3 zeta co-expressed; MEK1 substrate from E. coli
Summary of the method: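 Full-length C-Raf carrying Y340E/Y341E, co-expressed with 14-3-3ζ in Sf9 cells, at approximately 4 nM, with approximately 10 nM biotinylated kinase-dead MEK1 (K97R) and 1 μM ATP, pH 7.5. Compound preincubated 60 min, reaction 1 hour at room temperature. Phospho-MEK read by AlphaScreen; IC50 by non-linear regression.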

b-Raf (V600E) = molecular target: T2, b-Raf (V600E) (Homo sapiens, UniProt P15056, V600E); assay: In vitro Raf activity determination (Alpha Screen, biotinylated kinase-dead MEK1 substrate), B-Raf; assay type: biochemical; conditions: b-Raf (V600E) approximately 4 pM; ATP 10 μM; pre-incubation 60 minutes; reaction 3 hours at room temperature
T2 construct: made in house
Summary of the method: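 Activated b-Raf(V600E) (~4 pM) pre-incubated 60 min with compound and biotinylated kinase-dead (K97R) MEK1 (~10 nM), then reacted 3 h at room temperature with 10 μM ATP in 50 mM Tris pH 7.5, 15 mM MgCl2, 0.01% BSA, 1 mM DTT. Phospho-MEK detected by AlphaScreen; IC50 by non-linear regression.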

T1 sequence (P04049 whole entry Y340E/Y341E): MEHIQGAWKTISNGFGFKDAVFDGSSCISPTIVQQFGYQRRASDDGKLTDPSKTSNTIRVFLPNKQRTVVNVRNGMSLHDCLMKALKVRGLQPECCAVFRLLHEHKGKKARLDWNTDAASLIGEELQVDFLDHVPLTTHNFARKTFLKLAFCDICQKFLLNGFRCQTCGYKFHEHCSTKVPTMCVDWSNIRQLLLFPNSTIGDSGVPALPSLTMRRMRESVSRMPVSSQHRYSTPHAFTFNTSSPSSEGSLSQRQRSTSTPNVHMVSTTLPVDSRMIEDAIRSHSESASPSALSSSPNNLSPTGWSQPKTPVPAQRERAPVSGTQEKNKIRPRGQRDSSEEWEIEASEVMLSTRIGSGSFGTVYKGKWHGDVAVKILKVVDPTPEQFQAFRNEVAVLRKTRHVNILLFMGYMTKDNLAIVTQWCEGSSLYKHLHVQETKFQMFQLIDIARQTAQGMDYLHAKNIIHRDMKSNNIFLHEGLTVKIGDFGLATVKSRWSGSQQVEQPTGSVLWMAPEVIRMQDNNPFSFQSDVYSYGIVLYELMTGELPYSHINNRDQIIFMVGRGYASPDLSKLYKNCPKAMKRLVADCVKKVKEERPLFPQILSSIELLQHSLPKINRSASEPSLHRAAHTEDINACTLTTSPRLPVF
T1 sequence (P63104 whole entry partner): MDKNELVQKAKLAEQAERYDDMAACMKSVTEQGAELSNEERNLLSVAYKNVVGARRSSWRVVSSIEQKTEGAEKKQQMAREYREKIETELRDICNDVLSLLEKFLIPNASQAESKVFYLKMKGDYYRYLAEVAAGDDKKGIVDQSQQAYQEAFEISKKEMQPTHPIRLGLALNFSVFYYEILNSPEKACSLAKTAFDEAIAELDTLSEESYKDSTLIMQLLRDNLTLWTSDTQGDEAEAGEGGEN
T2 sequence (P15056 whole entry V600E): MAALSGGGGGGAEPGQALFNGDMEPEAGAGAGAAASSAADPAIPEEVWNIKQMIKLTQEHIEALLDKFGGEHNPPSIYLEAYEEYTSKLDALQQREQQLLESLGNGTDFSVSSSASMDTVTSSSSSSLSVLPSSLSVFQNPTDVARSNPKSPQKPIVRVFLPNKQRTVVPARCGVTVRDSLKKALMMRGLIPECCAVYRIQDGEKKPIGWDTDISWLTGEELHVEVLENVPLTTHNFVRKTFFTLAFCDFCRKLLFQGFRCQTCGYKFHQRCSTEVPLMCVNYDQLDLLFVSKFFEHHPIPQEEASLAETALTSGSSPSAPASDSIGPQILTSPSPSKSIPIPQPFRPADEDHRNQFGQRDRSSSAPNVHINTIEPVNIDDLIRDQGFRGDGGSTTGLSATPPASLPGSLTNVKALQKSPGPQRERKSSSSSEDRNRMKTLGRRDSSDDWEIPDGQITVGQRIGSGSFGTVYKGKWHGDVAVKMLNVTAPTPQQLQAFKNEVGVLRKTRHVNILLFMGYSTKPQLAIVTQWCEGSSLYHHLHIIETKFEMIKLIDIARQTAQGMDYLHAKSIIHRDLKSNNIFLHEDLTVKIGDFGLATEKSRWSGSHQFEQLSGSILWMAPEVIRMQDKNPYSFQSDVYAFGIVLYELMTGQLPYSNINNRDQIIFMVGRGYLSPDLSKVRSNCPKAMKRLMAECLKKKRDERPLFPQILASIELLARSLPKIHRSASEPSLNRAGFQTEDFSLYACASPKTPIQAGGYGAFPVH

IC50 (C-RAF) [nM]	IC50 (b-Raf (V600E)) [nM]	Compound
2.38	15.2	Cc1ncc(NC(=O)c2cnnc(C3CC3)c2)cc1-c1cnc(NC2CCOCC2)c(C#N)c1 [Example 200, N-(5′-cyano-2-methyl-6′-((tetrahydro-2H-pyran-4-yl)amino)-[3,3′-bipyridin]-5-yl)-6-cyclopropylpyridazine-4-carboxamide]
0.0597	0.35	Cc1ccc(NC(=O)c2ccnc(S(C)(=O)=O)c2)cc1-c1cnc(N2CCOCC2)c(C#N)c1 [Example 156, N-(3-(5-cyano-6-morpholinopyridin-3-yl)-4-methylphenyl)-2-(methylsulfonyl) isonicotinamide]
0.169	0.94	COCCNc1ncc(-c2cc(NC(=O)c3ccnc(C4(C#N)CC4)c3)ccc2C)cc1C#N [Example 177, N-(3-(5-cyano-6-((2-methoxyethyl)amino)pyridin-3-yl)-4-methylphenyl)-2-(1-cyanocyclopropyl) isonicotinamide]
0.285	1.53	Cc1ccc(NC(=O)c2cnnc(C(C)(C)F)c2)cc1-c1cnc(N2CC(C)(O)C2)c(C#N)c1 [Example 194, N-(3-(5-cyano-6-(3-hydroxy-3-methylazetidin-1-yl)pyridin-3-yl)-4-methylphenyl)-6-(2-fluoropropan-2-yl)pyridazine-4-carboxamide]
0.768	5.57	Cc1ccc(NC(=O)c2cccc(C(F)(F)F)c2)cc1-c1cnc(-n2ccc(=O)cc2)c(C#N)c1 [Example 118, N-(3-(3′-cyano-4-oxo-4H-[1,2′-bipyridin]-5′-yl)-4-methylphenyl)-3-(trifluoromethyl) benzamide]
101	447	Cc1ncc(NC(=O)c2ccnc(C(F)(F)F)c2)cc1-c1cnc(-n2ccccc2=O)c(C#N)c1 [Example 51, N-(3′-cyano-2″- methyl-2-oxo-2H-[1,2′:5′,3″- terpyridin]-5″-yl)-2-(trifluoromethyl) isonicotinamide]
0.222	0.683	Cc1ccc(NC(=O)c2ccnc(C(C)(C)F)c2)cc1-c1cnc(N2CCNCC2)c(C#N)c1 [Example 164, N-(3-(5-cyano-6-(piperazin-1-yl)pyridin-3-yl)-4-methylphenyl)-2-(2-fluoropropan-2-yl)isonicotinamide]
8.17	48.2	COCCNc1ncc(-c2cc(NC(=O)c3cnnc(C(F)(F)F)c3)cnc2C)cc1C#N [Example 203, N-(5′-cyano-6′-((2-methoxyethyl)amino)-2-methyl-[3,3′-bipyridin]-5-yl)-6-(trifluoromethyl) pyridazine-4-carboxamide]
5.21	30.6	CCn1cc(C(=O)Nc2cnc(C)c(-c3cnc(N4CC(C)(O)C4)c(C#N)c3)c2)cc(C(F)(F)F)c1=O [Example 191, N-(5′-cyano-6′-(3-hydroxy-3-methylazetidin-1-yl)-2-methyl-[3,3′-bipyridin]-5-yl)-1-ethyl-6-oxo-5-(trifluoromethyl)-1,6-dihydropyridine-3-carboxamide]
0.0746	0.427	Cc1ccc(NC(=O)c2ccnc(C(F)(F)F)c2)cc1-c1cnc(-c2cnn(C)c2)c(C#N)c1 [Example 124, N-(3-(5-cyano-6-(1-methyl-1H-pyrazol-4-yl)pyridin-3-yl)-4-methylphenyl)-2-(trifluoromethyl) isonicotinamide]
17.6	196	Cc1ccc(NC(=O)c2cn(C)nc2C)cc1-c1cnc(N(C)C)c(C#N)c1 [Example 252, N-(3-(5-cyano-6-(dimethylamino)pyridin-3-yl)-4-methylphenyl)-1,3-dimethyl-1H-pyrazole-4-carboxamide]
0.66	3.14	Cc1ncc(NC(=O)c2ccnc(C(F)(F)F)c2)cc1-c1cnc(-c2ccn(C)c(=O)c2)c(C#N)c1 [Example 102, N-(5′-cyano-1″,2-dimethyl-2″-oxo-1″,2″-dihydro-[3,3′:6′,4″- terpyridin]-5-yl)-2-(trifluoromethyl) isonicotinamide]
0.695	2.25	Cc1ccc(NC(=O)c2cc(C(C)(C)O)ccn2)cc1-c1cnc(N2CCOCC2)c(C#N)c1 [Example 237, N-(3-(5-cyano-6-morpholinopyridin-3-yl)-4-methylphenyl) 4-(2-hydroxypropan-2-yl)picolinamide]
0.519	3.51	Cc1ccc(NC(=O)c2cc(C(C)(F)F)ccn2)cc1-c1cnc(N2CC(C)(O)C2)c(C#N)c1 [Example 240, N-(3-(5-cyano-6-(3-hydroxy-3-methylazetidin-1-yl)pyridin-3-yl)-4-methylphenyl)-4-(1,1-difluoroethyl) picolinamide]
1.31	8.46	Cc1ncc(NC(=O)c2ccnc(C(F)(F)F)c2)cc1-c1cnc(N2CC(C)(O)C2)c(C#N)c1 [Example 180, N-(5′-cyano-6′-(3-hydroxy-3-methylazetidin-1-yl)-2-methyl-[3,3′-bipyridin]-5-yl)-2-(trifluoromethyl) isonicotinamide]
2.55	9.82	Cc1ncc(NC(=O)c2ccnc(C(C)(C)C#N)c2)cc1-c1cnc(NC(C)C)c(C#N)c1 [Example 28, N-(5′-cyano-6′-(isopropylamino)-2-methyl-[3,3′-bipyridin]-5-yl)-2-(2-cyanopropan-2-yl)isonicotinamide]
1.85	7.67	Cc1ncc(NC(=O)c2cc(C(C)(C)N)cc(C(F)(F)F)c2)cc1-c1cnc(N2CCOCC2)c(C#N)c1 [Example 246, 3-(2-aminopropan-2-yl)-N-(5′-cyano-2-methyl-6′-morpholino-[3,3′-bipyridin]-5-yl)-5-(trifluoromethyl) benzamide]
0.566	4.44	CNc1ncc(-c2cc(C(=O)Nc3cccc(C(F)(F)F)c3)ccc2C)cc1C#N [Example 7, 3-(5-cyano-6-(methylamino)pyridin-3-yl)-4-methyl-N-(3-(trifluoromethyl)phenyl) benzamide]
0.702	5.68	Cc1ccc(NC(=O)c2ccnc(S(C)(=O)=O)c2)cc1-c1cnc(N2CCNCC2)c(C#N)c1 [Example 152, N-(3-(5-cyano-6-(piperazin-1-yl)pyridin-3-yl)-4-methylphenyl)-2-(methylsulfonyl) isonicotinamide]
0.792	3.61	Cc1ccc(NC(=O)c2ccnc(C(C)(C)O)c2)cc1-c1cnc(C2CCOCC2)c(C#N)c1 [Example 140, N-(3-(5-cyano-6-(tetrahydro-2H-pyran-4-yl)pyridin-3-yl)-4-methylphenyl)-2-(2-hydroxypropan-2-yl)isonicotinamide]
4.82	32.6	COCCNc1ncc(-c2cc(NC(=O)c3cnnc(C(C)(C)C#N)c3)cnc2C)cc1C#N [Example 202, N-(5′-cyano-6′-((2-methoxyethyl)amino)-2-methyl-[3,3′-bipyridin]-5-yl)-6-(2-cyanopropan-2-yl)pyridazine-4-carboxamide]
0.148	0.56	Cc1ccc(NC(=O)c2ccnc(C3(C#N)CC3)c2)cc1-c1cnc(N2CCNCC2)c(C#N)c1 [Example 145, N-(3-(5-cyano-6-(piperazin-1-yl)pyridin-3-yl)-4-methylphenyl)-2-(1-cyanocyclopropyl) isonicotinamide]
0.671	4.05	Cc1ccc(NC(=O)c2ccnc(C(C)(C)C#N)c2)cc1-c1cnc(N2CC(C)(O)C2)c(C#N)c1 [Example 29, N-(3-(5-cyano-6-(3-hydroxy-3-methylazetidin-1-yl)pyridin-3-yl)-4-methylphenyl)-2-(2-cyanopropan-2-yl)isonicotinamide]
1.53	9.01	Cc1ncc(NC(=O)c2ccnc(C(C)(C)C#N)c2)cc1-c1cnc(N2CCC2)c(C#N)c1 [Example 76, N-(6′-(azetidin-1-yl)-5′-cyano-2-methyl-[3,3′-bipyridin]-5-yl)-2-(2-cyanopropan-2-yl)isonicotinamide]
2.66	13.7	Cc1ncc(NC(=O)c2ccnc(C(C)(C)C#N)c2)cc1-c1cnc(-c2cccnc2)c(C#N)c1 [Example 108, N-(3′-cyano-2″- methyl-[3,2′:5′,3″- terpyridin]-5″-yl)-2-(2-cyanopropan-2-yl)isonicotinamide]
2.41	10.3	Cc1ncc(NC(=O)c2ccnc(C(C)(C)C#N)c2)cc1-c1cnc(NC2CCOC2)c(C#N)c1 (stereo in doubt) [Example 78b, (R)-N-(5′-cyano-2-methyl-6′-((tetrahydrofuran-3-yl)amino)-[3,3′-bipyridin]-5-yl)-2-(2-cyanopropan-2-yl)isonicotinamide]
2.7	14.5	Cc1ncc(NC(=O)c2ccnc(C(C)(C)C#N)c2)cc1-c1cnc(N2CC(O)C2)c(C#N)c1 [Example 65, N-(5′-cyano-6′-(3-hydroxyazetidin-1-yl)-2-methyl-[3,3′-bipyridin]-5-yl)-2-(2-cyanopropan-2-yl)isonicotinamide]
2.14	16.1	COCCNc1ncc(-c2cc(NC(=O)c3ccnc(C(F)F)c3)cnc2C)cc1C#N [Example 196, N-(5′-cyano-6′-((2-methoxyethyl)amino)-2-methyl-[3,3′-bipyridin]-5-yl)-2-(difluoromethyl) isonicotinamide]
